The values that follow come from ChEMBL document CHEMBL1131451, “Structural and functional analyses of benzamidine-based inhibitors in complex with trypsin: implications for the inhibition of factor Xa, tPA, and urokinase” (J Med Chem, 1998).

The target of test [1] is Urokinase-type plasminogen activator (Homo sapiens, UniProt P00749). Description: Inhibitory activity against human urokinase plasminogen activator expressed as dissociation constant.
The target in the next test is Coagulation factor X (Bos taurus, UniProt P00743). Description: Inhibitory activity against bovine coagulation factor X expressed as dissociation constant.
Another test concerns the target Prothrombin (Bos taurus, UniProt P00735). Description: Inhibitory activity against bovine thrombin expressed as dissociation constant.
In test [2] the target is Tissue-type plasminogen activator (Homo sapiens, UniProt P00750). Description: Inhibitory activity against human tissue-type plasminogen activator expressed as dissociation constant.
The target in the next test is T1, Serine protease 1 (Bos taurus, UniProt P00760).
T1 sequence (P00760 whole entry): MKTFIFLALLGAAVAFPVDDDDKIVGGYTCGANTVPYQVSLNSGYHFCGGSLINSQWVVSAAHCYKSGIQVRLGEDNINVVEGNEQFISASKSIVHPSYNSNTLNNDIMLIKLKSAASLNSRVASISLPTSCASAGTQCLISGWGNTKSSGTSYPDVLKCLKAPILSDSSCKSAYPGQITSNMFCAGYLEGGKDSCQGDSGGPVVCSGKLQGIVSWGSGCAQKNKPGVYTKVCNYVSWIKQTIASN
As to the kind of experiment: Inhibitory activity against bovine trypsin expressed as dissociation constant.

pKi: −log10 of the molar value.

Tissue-type plasminogen activator, sequence (P00750 whole entry): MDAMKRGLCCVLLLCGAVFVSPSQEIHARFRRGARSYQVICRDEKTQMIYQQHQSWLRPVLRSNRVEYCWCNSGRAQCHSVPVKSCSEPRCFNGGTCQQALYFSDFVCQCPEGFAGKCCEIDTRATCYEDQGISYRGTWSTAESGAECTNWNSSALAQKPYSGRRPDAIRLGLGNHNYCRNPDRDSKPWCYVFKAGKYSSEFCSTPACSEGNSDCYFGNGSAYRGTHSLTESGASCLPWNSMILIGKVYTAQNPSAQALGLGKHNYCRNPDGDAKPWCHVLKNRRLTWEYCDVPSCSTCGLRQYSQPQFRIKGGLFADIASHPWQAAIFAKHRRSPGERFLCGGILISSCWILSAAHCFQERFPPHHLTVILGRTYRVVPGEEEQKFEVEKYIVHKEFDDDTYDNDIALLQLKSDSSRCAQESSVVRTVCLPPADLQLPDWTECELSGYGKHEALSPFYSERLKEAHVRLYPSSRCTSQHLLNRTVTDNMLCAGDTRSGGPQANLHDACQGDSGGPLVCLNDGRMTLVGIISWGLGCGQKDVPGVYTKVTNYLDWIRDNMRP
Coagulation factor X, sequence (P00743 41-180 limits assumed): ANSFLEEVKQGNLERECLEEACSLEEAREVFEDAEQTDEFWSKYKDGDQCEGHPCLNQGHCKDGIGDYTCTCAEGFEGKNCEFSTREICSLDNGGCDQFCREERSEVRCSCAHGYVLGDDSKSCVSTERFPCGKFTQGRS
Coagulation factor X, sequence (P00743 234-492 limits assumed): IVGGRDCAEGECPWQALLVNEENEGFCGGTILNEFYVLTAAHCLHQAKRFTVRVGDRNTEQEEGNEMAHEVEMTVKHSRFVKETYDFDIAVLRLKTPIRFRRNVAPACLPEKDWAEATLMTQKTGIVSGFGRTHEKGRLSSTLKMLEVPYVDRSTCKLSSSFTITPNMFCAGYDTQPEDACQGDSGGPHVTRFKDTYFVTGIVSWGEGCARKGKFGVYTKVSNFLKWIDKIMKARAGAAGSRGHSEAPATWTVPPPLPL

In general, pKi refers to the negative decadic logarithm of the Ki, by convention in mol/L. Read a high pKi as a low Ki. Consider `N=C(N)c1cccc(CC(NS(=O)(=O)c2ccc3ccccc3c2)C(=O)N2CCCCC2)c1` (configuration not stated), for which the pKi in test [1] was 4.42.
In test [1], `N=C(N)c1cccc(CC(NS(=O)(=O)c2ccc3ccccc3c2)C(=O)N2CCN(c3ccccc3)CC2)c1` (configuration not stated) had a pKi of 4.39.
With `CC1CCN(C(=O)C(Cc2cccc(C(=N)N)c2)NS(=O)(=O)c2c(C(C)C)cc(C(C)C)cc2C(C)C)CC1` (configuration not stated), the values for the pKi (in test [1]; at Coagulation factor X; at Prothrombin) were 5.70, 5.70 and 7.12, respectively.
As to `CC(C)c1cc(C(C)C)c(S(=O)(=O)NC(Cc2cccc(C(N)N)c2)C(=O)N2CCN(C(=O)OCc3ccccc3)CC2)c(C(C)C)c1` (configuration not stated), the negative-log Ki (pKi) was 5.85 in test [1]; 5.57 on Coagulation factor X; 5.96 at Prothrombin; 6.02 in test [2]; 6.70 on Serine protease 1.
For the compound `CC1CCN(C(=O)C(Cc2cccc(C(=N)N)c2)NC(=O)OC(C)(C)C)CC1` (configuration not stated), the negative-log Ki (pKi) in test [1] is 4.25; at Coagulation factor X it was 4.19.
`COC(=O)C1CCCN(C(=O)C(Cc2cccc(C(=N)N)c2)NS(=O)(=O)c2ccc3ccccc3c2)C1` (configuration not stated): the pKi is 4.59 in test [1], 4.74 on Coagulation factor X and 6.82 on Prothrombin.
Turning to `COC(=O)C(Cc1cccc(C(N)N)c1)NC(=O)CNS(=O)(=O)c1ccc(C)cc1` (configuration not stated), the pKi in test [1] is 4.11; on Prothrombin, 5.41; in test [2], 4.64; on Serine protease 1 it was 5.24.
In the case of `CC1CCCN(C(=O)C(Cc2cccc(C(=N)N)c2)NS(=O)(=O)c2ccc3ccccc3c2)C1` (configuration not stated), the pKi in test [1] is 4.46; on Coagulation factor X it was 4.49; on Prothrombin, 6.89; on Serine protease 1 it was 6.28.
Consider `CC(C)c1cc(C(C)C)c(S(=O)(=O)NC(Cc2cccc(C(N)N)c2)C(=O)N2CCCC(C(=O)NCc3ccccc3)C2)c(C(C)C)c1` (configuration not stated), for which the negative logarithm of the Ki (pKi) in test [1] is 5.80; at Coagulation factor X, 5.60; at Prothrombin, 5.74; in test [2] it was 6.01; on Serine protease 1 it was 6.34.
For `N=C(N)c1cccc(CC(NS(=O)(=O)c2ccc3ccccc3c2)C(=O)N2CCNCC2)c1` (configuration not stated), the negative logarithm of the Ki (pKi) in test [1] is 4.32.
For `CNC(=O)C(Cc1cccc(C(N)N)c1)NC(=O)CNS(=O)(=O)c1ccc2ccccc2c1` (configuration not stated), the negative logarithm of the Ki (pKi) in test [1] is under 3.00; on Coagulation factor X, 5.52; at Prothrombin, 5.02; in test [2], 4.16; at Serine protease 1, 5.04.
Take `NC(N)c1ccc(CC(NC(=O)CNS(=O)(=O)c2ccc3ccccc3c2)C(=O)N2CCCCC2)cc1` (configuration not stated): the negative-log Ki (pKi) in test [1] was under 3.00; at Prothrombin, 8.22; in test [2], 4.15.
Turning to `COC(=O)C1CCN(C(=O)C(Cc2cccc(C(=N)N)c2)NS(=O)(=O)c2ccc3ccccc3c2)CC1` (configuration not stated), the pKi in test [1] was 5.03; at Coagulation factor X it was 4.37; at Prothrombin, 7.77.
Take `Cc1ccc(S(=O)(=O)NC(Cc2cccc(C(N)N)c2)C(=O)N2CCCCC2)cc1` (configuration not stated): the pKi is 4.26 in test [1], 4.82 on Coagulation factor X, 6.47 on Prothrombin and 3.92 in test [2].
As to `CC1CCN(C(=O)C(Cc2cccc(C(=N)N)c2)NS(=O)(=O)c2cccc3ccccc23)CC1` (configuration not stated), the negative logarithm of the Ki (pKi) is 4.47 in test [1] and 4.38 at Coagulation factor X.
In the case of `CCOC(=O)N1CCN(C(=O)C(Cc2cccc(C(N)N)c2)NS(=O)(=O)c2c(C(C)C)cc(C(C)C)cc2C(C)C)CC1` (configuration not stated), the pKi in test [1] is 6.39; at Coagulation factor X it was 5.77; at Prothrombin, 6.31; in test [2], 6.24; on Serine protease 1, 7.43.
For the compound `CC1CCN(C(=O)C(Cc2cccc(C(=N)N)c2)NS(=O)(=O)c2ccc3c(c2)C(=O)c2ccccc2C3=O)CC1` (configuration not stated), the negative logarithm of the Ki (pKi) is 4.40 in test [1] and 5.64 at Coagulation factor X.
On to `CCOC(=O)C1CCN(C(=O)C(Cc2cccc(C(=N)N)c2)NS(=O)(=O)c2ccc3ccccc3c2)CC1` (configuration not stated), for which the pKi in test [1] was 5.35; on Coagulation factor X, 4.74; on Prothrombin, 6.66; in test [2], 4.62; at Serine protease 1 it was 8.08.
Regarding `NC(N)c1ccc(/C=C2\CCCC/C(=C\c3ccc(C(N)N)cc3)C2=O)cc1`, the negative-log Ki (pKi) in test [1] was 5.47; at Coagulation factor X, 7.89; on Prothrombin, 6.49; in test [2] it was 7.46; on Serine protease 1, 7.05.
Regarding `CC1CCN(C(=O)C(N)Cc2cccc(C(=N)N)c2)CC1` (configuration not stated), the pKi in test [1] is 3.10; on Coagulation factor X, 3.64.
In the case of `Cc1cc(C)c(S(=O)(=O)NC(Cc2cccc(C(=N)N)c2)C(=O)N2CCC(C)CC2)c(C)c1` (configuration not stated), the negative-log Ki (pKi) in test [1] was 4.80; on Coagulation factor X, 4.02.
For `Cc1ccc(S(=O)(=O)NC(Cc2cccc(C(=N)N)c2)C(=O)N2CCC(C)CC2)cc1` (configuration not stated), the negative logarithm of the Ki (pKi) in test [1] was 4.60; on Coagulation factor X it was 4.15.
Consider `CC(C)OC(=O)C(Cc1cccc(C(N)N)c1)NC(=O)CNS(=O)(=O)c1ccc2ccccc2c1` (configuration not stated), for which the negative logarithm of the Ki (pKi) in test [1] was 4.31; on Coagulation factor X, 6.62; at Prothrombin, 5.92; in test [2], 4.48; at Serine protease 1, 5.43.
Compound `CC1CCN(C(=O)C(Cc2cccc(C(=N)N)c2)NS(=O)(=O)c2ccc3ccccc3c2)CC1` (configuration not stated) had a pKi in test [1] of 4.51.
For `N=C(N)c1ccccc1` [BENZAMIDINE], the pKi at Coagulation factor X was 3.80; at Prothrombin it was 3.05.
